Assay results published in patent US20240116985A1, “STAPLED PEPTIDES AND METHODS THEREOF” (priority 2020, published 2024).
Like-named read-outs stand apart in the source and are kept apart here.

Key:
[1] = target: T1, beta-catenin/TCF4 engagement (Homo sapiens, UniProt P35222); experiment: Nano-BRET target engagement assay (B-cat-Halo & TCF4-Luc in HEK293 cells); type: cell-based
T1 construct: expressed in transfected cells; host or cells: HEK293
T1 sequence (P35222 1-781): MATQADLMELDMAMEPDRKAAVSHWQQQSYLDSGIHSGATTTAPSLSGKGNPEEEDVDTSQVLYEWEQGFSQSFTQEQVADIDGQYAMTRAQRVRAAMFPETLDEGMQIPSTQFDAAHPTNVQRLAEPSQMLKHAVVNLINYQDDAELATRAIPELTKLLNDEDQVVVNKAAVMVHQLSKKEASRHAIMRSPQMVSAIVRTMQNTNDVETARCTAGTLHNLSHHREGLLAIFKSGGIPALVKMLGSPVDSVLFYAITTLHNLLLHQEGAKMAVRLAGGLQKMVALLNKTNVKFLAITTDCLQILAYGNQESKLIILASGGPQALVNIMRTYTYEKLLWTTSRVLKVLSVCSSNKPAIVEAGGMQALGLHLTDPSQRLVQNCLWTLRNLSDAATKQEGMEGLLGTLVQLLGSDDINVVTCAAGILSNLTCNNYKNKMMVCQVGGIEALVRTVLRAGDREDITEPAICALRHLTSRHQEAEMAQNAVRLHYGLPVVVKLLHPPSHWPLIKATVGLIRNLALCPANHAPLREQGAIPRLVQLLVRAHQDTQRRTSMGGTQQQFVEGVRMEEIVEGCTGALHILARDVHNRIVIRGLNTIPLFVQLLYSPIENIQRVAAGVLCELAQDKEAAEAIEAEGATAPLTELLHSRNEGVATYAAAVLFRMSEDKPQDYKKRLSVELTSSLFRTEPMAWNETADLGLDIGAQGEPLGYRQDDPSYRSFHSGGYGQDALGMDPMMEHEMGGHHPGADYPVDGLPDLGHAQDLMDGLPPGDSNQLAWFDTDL

[2] = test system: TCF/LEF luciferase Reporter in DLD1 cells; experiment: TCF reporter assay (DLD1 TCF/LEF luciferase reporter, Bright-Glo); type: cell-based; conditions: read-out: DLD1 4% Abs IC50
Method in brief: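 Readouts: Bright-Glo luciferase for reporter signal and CellTiter-Glo for cell viability, with absolute IC50 derived. The reporter clone came from lentiviral TCF/LEF-luciferase transduction of DLD1 cells, seeded 5000 cells/well in RPMI with 4% FBS and exposed overnight to serially diluted compounds.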

COLO320DM cells = type: cell-based; conditions: COLO320DM cells, read-out: COLO320DM Proliferation Abs IC50
Description: COLO320DM proliferation assay IC50: In some embodiments, inhibition of cell proliferation by provided technologies were assessed using cell lines related to or from certain conditions, disorders or diseases. In some embodiments, cell proliferation was assessed in COLO320DM cells. In some embodiments, assessment was performed using the following procedure: On Day 1, cultured COLO320DM cells in a T75 flask were trypsinized in 3 mL of 0.25% trypsin/EDTA for 5 min and quenched with 10 mL RPMI-1640+4% HI FBS assay media. The cells were spun down at 1200 rpm for 5 min, the cell pellet collected and re-suspended at 5000 cells/mL in assay media. Using a Combi liquid handler, cells were dispensed (50 uL, 250 cells/well) into three 384 well plates. Plates were incubated at 37° C., […]. On day 2, compounds were added. A liquid handling system was used to prepare the compound dilution and dispense compound into assay plates. The compounds were serially diluted 1/2 in 90% DMSO to create a 7 point dose curve. From compound plate, 100 nL of compound were dispensed directly into wells of the assay plates to create a dose curve starting at 20 uM and ending at 313 nM. Assay plates were incubated at 37° C., […]. On day 6, assay plates were removed from the incubator and allowed to sit at room temperature for 30 min. Using a liquid handler, 20 uL of CellTiter Glo reagent was added to each well. The assay plates were shaken for 2 min and allowed to sit on the bench for 10-15 minutes. The assay plates were read using the CellTiter Glo protocol on a GloMax microplate reader, and the data analyzed using GraphPad Prism.

[3] = target: T2, full-length beta-Catenin (Uniprot ID P35222) (Homo sapiens, UniProt P35222); experiment: Fluorescence polarization IC50 (beta-catenin / 5FAM-TCF4 10-53 competition); type: binding; conditions: fluorescence polarization; read-out: beta-Catenin FP IC50
T2 construct: 10 nM full-length beta-Catenin (Uniprot ID P35222)
T2 sequence (P35222 1-781): T1 sequence (P35222 1-781)

[4] = absolute IC50, read-out: NanoBRET Abs IC50

Structure (SMILES) | IC50 ([1]; NanoBRET Abs IC50 (uM), absolute IC50) | IC50 ([2]; DLD1 reporter, 4%, absolute IC50) | IC50 (COLO320DM cells; absolute IC50) | IC50 [3] | IC50 ([2]; DLD1 4%) | IC50 (COLO320DM cells) | IC50 [1, 4] | IC50 ([1]; read-out: NanoBRET Abs IC50)
CC(=O)N1CCC[C@]12CC=CCCCC1(CCCC=CCCCOC(=O)N3CC[C@@](C(=O)N[C@@H](Cc4ccsc4)C(=O)N[C@@H](Cc4csc5ccccc45)C(=O)N[C@@H](CC(N)=O)C(=O)N[C@@H](CC(C)C)C(=O)N[C@@H](CC(C)C)C(=O)N[C@@H](CC(C)C)C(=O)N[C@@H](CC(C)C)C(=O)N[C@@H](CC(C)C)C(N)=O)(C3)NC(=O)[C@H](CC(C)C)NC(=O)[C@H](Cc3ccccc3)NC(=O)[C@H](C)NC(=O)[C@H](C)NC(=O)[C@H](Cc3cccc(C(=O)O)c3)NC(=O)[C@H](CC(=O)O)NC1=O)NC(=O)[C@H](CC(C)(C)C)NC(=O)[C@H](CC(=O)O)NC2=O (single isomer, unassigned) [I-2280, Ac-PL3-Asp-Npg-B5-Asp-3COOHF-Ala-Ala-Phe-Leu-PyrS2-3Thi-BztA-Asn-Leu-Leu-Leu-Leu-Leu-NH2] | > 20 µM | > 20 µM | > 20 µM |  |  |  |  | 
CC(=O)N1CCC[C@]12CC=CCCCC1(CCCC=CCCCOC(=O)N3CC[C@@](C(=O)N[C@@H](Cc4ccccc4C(F)(F)F)C(=O)N[C@@H](Cc4csc5ccccc45)C(=O)N[C@@H](C)C(N)=O)(C3)NC(=O)[C@H](CC(C)C)NC(=O)[C@H](Cc3ccccc3)NC(=O)[C@H](C)NC(=O)[C@H](CCC(N)=O)NC(=O)[C@H](Cc3cccc(C(=O)O)c3)NC(=O)[C@H](CC(=O)O)NC1=O)NC(=O)[C@H](CC(C)(C)C)NC(=O)[C@H](CC(=O)O)NC2=O (stereo partly drawn) [I-2057, Ac-PL3-Asp-Npg-B5-Asp-3COOHF-Gln-Ala-Phe-Leu-PyrS2-2F3MeF-BztA-Ala-NH2] |  |  |  | 0.017 µM | 4 µM | > 20 µM |  | 
CC(=O)N1CCC[C@]12CC=CCCCC1(CCCC=CCCCOC(=O)N3CC[C@@](C(=O)N[C@@H](Cc4ccccc4C(F)(F)F)C(=O)N[C@@H](Cc4csc5ccccc45)C(=O)N[C@@H](CCC(N)=O)C(=O)N[C@@H](CC(C)C)C(=O)N[C@@H](CC(C)C)C(N)=O)(C3)NC(=O)[C@H](CC(C)C)NC(=O)[C@H](Cc3ccccc3)NC(=O)[C@H](C)NC(=O)[C@H](C)NC(=O)[C@H](Cc3cccc(C(=O)O)c3)NC(=O)[C@H](CC(=O)O)NC1=O)NC(=O)[C@H](CC(C)(C)C)NC(=O)[C@H](CC(=O)O)NC2=O (stereo partly drawn) [I-2380, Ac-PL3-Asp-Npg-B5-Asp-3COOHF-Ala-Ala-Phe-Leu-PyrS2-2F3MeF-BztA-Gln-Leu-Leu-NH2] |  |  | > 20 µM | 0.33 µM |  |  | 2.7 µM | 
CC(=O)N1CCC[C@]12CC=CCCCC1(CCCC=CCCCOC(=O)N3CC[C@@](C(=O)N[C@@H](Cc4ccccc4C(F)(F)F)C(=O)N[C@@H](Cc4csc5ccccc45)C(=O)N[C@@H](CCC(=O)N(C)C)C(N)=O)(C3)NC(=O)[C@H](CC(C)C)NC(=O)[C@H](Cc3ccccc3)NC(=O)[C@H](C)NC(=O)[C@H](C)NC(=O)[C@H](Cc3cccc(C(=O)O)c3)NC(=O)[C@H](CC(=O)O)NC1=O)NC(=O)[C@H](CC(C)(C)C)NC(=O)[C@H](CC(=O)O)NC2=O (stereo partly drawn) [I-2532, Ac-PL3-Asp-Npg-B5-Asp-3COOHF-Ala-Ala-Phe-Leu-PyrS2-2F3MeF-BztA-Me2Gln-NH2] |  |  | > 20 µM | 0.014 µM |  |  | 4.5 µM | 
CCCC[C@@H]1NC(=O)[C@H](Cc2ccccc2)NC(=O)[C@H](C)NC(=O)[C@H](C)NC(=O)[C@H](Cc2cccc(C(=O)O)c2)NC(=O)[C@H](CC(=O)O)NC(=O)C2(CCCC=CCCCOC(=O)N3CC[C@@](C(=O)N[C@@H](Cc4ccccc4C(F)(F)F)C(=O)N[C@@H](Cc4csc5ccccc45)C(=O)N[C@@H](CCC(=O)N(C)C)C(N)=O)(C3)NC1=O)CCCC=CC[C@]1(CCCN1C(C)=O)C(=O)N[C@@H](CC(=O)O)C(=O)N[C@@H](CC(C)(C)C)C(=O)N2 (stereo partly drawn) [I-2533, Ac-PL3-Asp-Npg-B5-Asp-3COOHF-Ala-Ala-Phe-nLeu-PyrS2-2F3MeF-BztA-Me2Gln-NH2] |  |  | > 20 µM | 0.028 µM |  |  | 6.2 µM | 
CC(=O)N1CCC[C@]12CC=CCCCC1(CCCC=CCCCOC(=O)N3CC[C@@](C(=O)N[C@@H](Cc4ccccc4C(F)(F)F)C(=O)N[C@@H](Cc4csc5ccccc45)C(=O)N[C@@H](CCC(=O)N4CCOCC4)C(N)=O)(C3)NC(=O)[C@H](CC(C)C)NC(=O)[C@H](Cc3ccccc3)NC(=O)[C@H](C)NC(=O)[C@H](C)NC(=O)[C@H](Cc3cccc(C(=O)O)c3)NC(=O)[C@H](CC(=O)O)NC1=O)NC(=O)[C@H](CC(C)(C)C)NC(=O)[C@H](CC(=O)O)NC2=O (stereo partly drawn) [I-2541, Ac-PL3-Asp-Npg-B5-Asp-3COOHF-Ala-Ala-Phe-Leu-PyrS2-2F3MeF-BztA-MorphGln-NH2] |  |  | > 20 µM | 0.021 µM |  |  | 4.7 µM | 
CCCC[C@@H]1NC(=O)[C@H](Cc2ccccc2)NC(=O)[C@H](C)NC(=O)[C@H](C)NC(=O)[C@H](Cc2cccc(C(=O)O)c2)NC(=O)[C@H](CC(=O)O)NC(=O)C2(CCCC=CCCCOC(=O)N3CC[C@@](C(=O)N[C@@H](Cc4ccccc4C(F)(F)F)C(=O)N[C@@H](Cc4csc5ccccc45)C(=O)N[C@@H](CCC(=O)N4CCOCC4)C(N)=O)(C3)NC1=O)CCCC=CC[C@]1(CCCN1C(C)=O)C(=O)N[C@@H](CC(=O)O)C(=O)N[C@@H](CC(C)(C)C)C(=O)N2 (stereo partly drawn) [I-2542, Ac-PL3-Asp-Npg-B5-Asp-3COOHF-Ala-Ala-Phe-nLeu-PyrS2-2F3MeF-BztA-MorphGln-NH2] |  |  | > 20 µM | 0.023 µM |  |  | 4 µM | 
CC(=O)N1CCC[C@]12CC=CCCCC1(CCCC=CCCCOC(=O)N3CC[C@@](C(=O)N[C@@H](Cc4ccsc4)C(=O)N[C@@H](Cc4csc5ccccc45)C(=O)N[C@H](CO)C(=O)N[C@@H](C)C(N)=O)(C3)NC(=O)[C@@H](CO)NC(=O)[C@H](Cc3ccccc3)NC(=O)[C@H](C)NC(=O)C(C)(C)NC(=O)[C@H](Cc3cccc(C(=O)O)c3)NC(=O)[C@H](CC(=O)O)NC1=O)NC(=O)[C@H](CC(C)(C)C)NC(=O)[C@H](CC(=O)O)NC2=O (stereo partly drawn) [I-2576, Ac-PL3-Asp-Npg-B5-Asp-3COOHF-Aib-Ala-Phe-dSer-PyrS2-3Thi-BztA-dSer-Ala-NH2] |  |  |  | 0.006 µM |  | > 20 µM |  | 16.1 µM
CC(=O)N1CCC[C@]12CC=CCCCC1(CCCC=CCCCOC(=O)N3CC[C@@](C(=O)N[C@@H](Cc4ccsc4)C(=O)N[C@@H](Cc4csc5ccccc45)C(=O)N[C@@H](CO)C(=O)N[C@@H](C)C(N)=O)(C3)NC(=O)[C@H](CO)NC(=O)[C@H](Cc3ccccc3)NC(=O)[C@H](C)NC(=O)C(C)(C)NC(=O)[C@H](Cc3cccc(C(=O)O)c3)NC(=O)[C@H](CC(=O)O)NC1=O)NC(=O)[C@H](CC(C)(C)C)NC(=O)[C@H](CC(=O)O)NC2=O (stereo partly drawn) [I-2577, Ac-PL3-Asp-Npg-B5-Asp-3COOHF-Aib-Ala-Phe-Ser-PyrS2-3Thi-BztA-Ser-Ala-NH2] |  |  |  | 0.007 µM |  | 9.5 µM |  | 2.7 µM
CC(=O)NCCCC[C@@H]1NC(=O)[C@H](Cc2ccccc2)NC(=O)[C@H](C)NC(=O)C(C)(C)NC(=O)[C@H](Cc2cccc(C(=O)O)c2)NC(=O)[C@H](CC(=O)O)NC(=O)C2(CCCC=CCCCOC(=O)N3CC[C@@](C(=O)N[C@@H](Cc4ccccc4C(F)(F)F)C(=O)N[C@@H](Cc4csc5ccccc45)C(=O)N[C@@H](C)C(=O)N[C@@H](C)C(N)=O)(C3)NC1=O)CCCC=CC[C@]1(CCCN1C(C)=O)C(=O)N[C@@H](CC(=O)O)C(=O)N[C@@H](CC(C)(C)C)C(=O)N2 (stereo partly drawn) [I-2579, Ac-PL3-Asp-Npg-B5-Asp-3COOHF-Aib-Ala-Phe-AcLys-PyrS2-2F3MeF-BztA-Ala-Ala-NH2] |  |  |  | 0.041 µM |  | 15.3 µM |  | 4.7 µM
